Assay results from ChEMBL document CHEMBL5625249, “Optimization and antifungal activity of quinoline derivatives linked to chalcone moiety combined with FLC against Candida albicans” (Eur J Med Chem, 2023).

Key:
Format in all cases: functional
[1] = system: Candida albicans; test: Synergistic antifungal activity against FLC-sensitive Candida albicans SC5314 assessed as fractional inhibitory concentration index measured after 24 hrs in presence of fluconazole by microdilution method
[2] = system: Candida albicans; test: Synergistic antifungal activity against Clinical FLC-resistant Candida albicans 23 measured after 24 hrs in presence of fluconazole by microdilution method
[3] = system: Candida albicans; test: Antifungal activity against Clinical FLC-resistant Candida albicans 23 measured after 24 hrs by microdilution method
[4] = system: Candida albicans; test: Synergistic antifungal activity against FLC-sensitive Candida albicans SC5314 measured after 24 hrs in presence of fluconazole by microdilution method
[5] = system: Candida albicans; test: Synergistic antifungal activity against Clinical FLC-resistant Candida albicans 23 assessed as fractional inhibitory concentration index measured after 24 hrs in presence of fluconazole by microdilution method
[6] = system: Candida albicans; test: Antifungal activity against FLC-sensitive Candida albicans SC5314 measured after 24 hrs by microdilution method

Row | Compound | fractional inhibitory concentration index (FICI) [1] | MIC80 [2] | MIC80 [3] | MIC80 [4] | fractional inhibitory concentration index (FICI) [5] | MIC80 [6]
1 | Cc1ccc(C(=O)CN2CCN(c3ccc(C(=O)/C=C/c4cc5ccccc5nc4N4CCN(C)CC4)cc3)CC2)cc1 | 1.05 | 33.4 µg/mL | > 40 µg/mL | 5.68 µg/mL | 0.83 | > 40 µg/mL
2 | CN1CCN(c2nc3ccccc3cc2/C=C/C(=O)c2ccc(N3CCN(CC(=O)c4ccc(Cl)c(Cl)c4)CC3)cc2)CC1 | 3.14 | 36.2 µg/mL | > 40 µg/mL | 17 µg/mL | 0.91 | > 40 µg/mL
3 | CN1CCN(c2nc3ccccc3cc2/C=C/C(=O)c2ccc(N3CCN(C(=O)c4ccc(F)cc4)CC3)cc2)CC1 | 0.16 | 3.43 µg/mL | > 40 µg/mL | 0.88 µg/mL | 0.09 | > 40 µg/mL
4 | CN1CCN(c2nc3ccccc3cc2/C=C/C(=O)c2ccc(N3CCN(S(=O)(=O)c4ccc(OC(F)(F)F)cc4)CC3)cc2)CC1 | 0.8 | 4.05 µg/mL | > 40 µg/mL | 4.31 µg/mL | 0.1 | > 40 µg/mL
